Paper PMC11988454, “Discovery of synthetic small molecules targeting the central regulator of Salmonella pathogenicity” (Science Advances, 2025)
Where “and” joins values, the source holds several entries; their conditions need not be identical. Equal entries are not always repeated.

Experiments:
[1] = tested on: HilD mutants; assay: EMSA, binding of HilD mutants to PhilA; assay type: biochemical, S. Typhimurium; conditions: 600 nM protein
Protocol: (§1) (F) EMSAs showing the binding of 600 nM HilDWT, HilDL45A, HilDY46A, HilDI100A, and HilDY212A to PhilA, upon incubation with the indicated concentrations of C26.
(§2) EMSAs were performed similarly to as described previously ([39]) using a 62–base pair double-stranded (dsDNA) fragment of the hilA promoter, encompassing the A1 binding site ([82]). dsDNA fragments were generated by melting the complementary primers PhilA_A1_f / PhilA_A1_r (table S10) together in TE buffer [10 mM Tris (pH 8.0) and 1 mM EDTA] at 95°C for 10 min before slowly cooling to r.t. The forward primer was modified with a 5′-Cy5 fluorescent dye for detection. The protein (600 nM) was incubated with 50 nM labeled DNA in EMSA buffer [20 mM Tris (pH 8.0), 100 mM KCl, 100 μM EDTA, and 3% glycerol]. C26 was diluted first in DMSO and subsequently 1:100 into the protein-DNA sample. Samples were incubated at 37°C for 15 min, supplemented with diluted DNA loading dye, and separated on a 1.5-mm-thick, 6% (w/v) TBE polyacrylamide gel at 6°C at a constant voltage of 100 V. Gels were imaged using a ChemiDocMP imaging system (Bio-Rad).

[2] = target: T1, HilD mutants (Salmonella typhimurium, UniProt P0CL08, I100A); assay: EMSA, binding of HilD mutants to PhilA; assay type: biochemical, S. Typhimurium; conditions: 600 nM protein
T1 construct: His6-SUMO (N, cleaved yes); made in house; host or cells: E. coli C41(DE3)
Protocol: as §1, §2

[3] = target: T2, HilD dimer (Salmonella typhimurium, UniProt P0CL08); assay: BS3 cross-linking of HilD; assay type: biochemical, S. Typhimurium; conditions: oleic acid 50 and 100 μM; C26 up to 200 μM
T2 construct: His6-SUMO (N, cleaved yes); made in house; host or cells: E. coli C41(DE3)
Protocol: BS^3 cross-linking of HilD was performed as previously described ([39]). In summary, HilD (10 μM) was first incubated with C26 or oleic acid in SEC buffer for 20 min at r.t., with a final DMSO concentration of 1% (v/v). HilD was then cross-linked by incubation with 0.2 mM BS^3 (Thermo Fisher Scientific, Pierce, A39266) at r.t. for 1 hour, before the reaction was quenched by the addition of 50 mM Tris (pH 7.5). Samples were analyzed using SDS-PAGE and visualized by silver staining.

[4] = tested on: SPI-encoded genes; assay type: cell-based, S. Typhimurium
Protocol: Salmonella was grown for 5 hours at 37°C in LB medium in the presence of 100 μM C26 or 1% (v/v) DMSO as a control. After growth, bacteria were harvested by centrifugation, and total RNA was isolated using the Qiagen RNeasy mini kit according to the manufacturer’s protocol. RNA-seq was performed on a HiSeq2500 with a 2 x 125–base pair paired-end read protocol. The Illumina Casava software was used to demultiplex the sequenced reads providing individual raw fastq sample files. Raw fastq files were prefiltered using the chastity filter to remove reads that contain a “Y” flag. FastQC (https://www.bioinformatics.babraham.ac.uk/projects/fastqc/, version v0.11.4) was used to determine the quality of the resulting fastq files. Subsequently, an adapter trimming/removal step was conducted with Cutadapt (https://pypi.python.org/pypi/cutadapt/, version 1.8.3). […] TopHat2 (https://ccb.jhu.edu/software/tophat/index.shtml, version v2.0.12) was used as aligner to map the remaining quality controlled reads to the Salmonella genome. Read counting to features (e.g., genes or exons) in the genome was performed with HTSeq-count (https://htseq.readthedocs.io/en/master/htseqcount.html, version 0.6.0.). Counting was performed using “union” mode on the feature “gene.” The stranded option was also set to “–stranded=no” to indicate to count features on both strands. Furthermore, the -r parameter from HTSeq was set to “pos” as this is the default of the output of TopHat’s “accepted_hits.bam” mapping file. For differential expression analysis, the raw read count table resulting from HTSeq counting is used and fed into the R package DESeq2 (version 1.10.1). Graphs were also produced in the R language (R version 3.2.1) mainly using the R package ggplot2 (version 2.2.0). Reports were produced using the R package rmarkdown (version 1.3).

[5] = tested on: T3SS-1 proteins SipA, SctE (SipB), SctP (InvJ); T1SS protein SiiF; assay: Western blotting of secreted and whole-cell proteins; assay type: cell-based, S. Typhimurium; conditions: Western blot
Protocol: Western blot analysis to quantify secreted and nonsecreted proteins was carried out as previously described ([66]). After a 5-hour culture under SPI-1–inducing conditions, cultures were centrifuged at 10,000g for 2 min at 4°C to separate cell pellets for the quantification of target proteins in whole cells, and the supernatant for the quantification of secreted proteins. The supernatants were first filtered with a 0.22-μm pore size filter. Sodium deoxycholic acid was then added to a final concentration of 0.1% (w/v) followed by a protein precipitation with 10% trichloroacetic acid (v/v) for 30 min at 4°C. The samples were pelleted by centrifugation at 20,000g for 20 min at 4°C to retrieve precipitated proteins, which were lastly washed with acetone before resuspension in SDS–polyacrylamide gel electrophoresis (PAGE) loading buffer. Whole-cell samples were directly resuspended in SDS-PAGE loading buffer.

[6] = tested on: S. enterica clinical isolates (SipA secretion through T3SS-1); assay: Plasmid-based SipA secretion assay in clinical isolates; assay type: cell-based; conditions: C26 100 μM, 75 strains
Protocol: The plasmid pT10-SipA-NLuc was electroporated into electrocompetent cells of S. enterica clinical isolates. Bacteria at an initial OD600 of 0.02 were grown for 5 hours in 1 ml of LB supplemented with 0.3 M NaCl, kanamycin (50 μg/ml), and either compound at 100 μM or 1% (v/v) DMSO. Cultures were pelleted, and then 25 μl of the supernatant was transferred to a 384-well plate to measure luminescence as previously described.

[7] = C26 100 μM vs DMSO, single replicates (Fig 2E)
[8] = C26 100 μM, size of the down-regulation given without sign

T1 sequence (P0CL08 whole entry I100A): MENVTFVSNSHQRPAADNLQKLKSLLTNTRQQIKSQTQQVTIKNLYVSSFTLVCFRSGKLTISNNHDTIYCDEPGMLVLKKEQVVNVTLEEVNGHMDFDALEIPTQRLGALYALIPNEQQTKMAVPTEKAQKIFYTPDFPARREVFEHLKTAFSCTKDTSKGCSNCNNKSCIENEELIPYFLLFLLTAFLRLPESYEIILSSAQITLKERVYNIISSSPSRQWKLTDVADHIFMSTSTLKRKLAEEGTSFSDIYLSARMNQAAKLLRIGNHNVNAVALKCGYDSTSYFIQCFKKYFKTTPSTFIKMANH
T2 sequence (P0CL08 whole entry): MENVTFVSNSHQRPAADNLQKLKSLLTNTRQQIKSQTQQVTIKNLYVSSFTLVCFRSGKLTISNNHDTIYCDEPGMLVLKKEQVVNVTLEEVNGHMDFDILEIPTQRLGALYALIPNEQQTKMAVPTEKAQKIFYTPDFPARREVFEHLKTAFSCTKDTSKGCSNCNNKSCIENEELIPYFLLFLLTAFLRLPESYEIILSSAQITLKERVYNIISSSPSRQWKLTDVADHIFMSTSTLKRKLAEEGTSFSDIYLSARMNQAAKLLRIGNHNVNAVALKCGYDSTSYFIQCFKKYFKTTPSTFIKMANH

With `CN(CC(=O)NCc1ccc2c(c1)OCO2)Cc1ccc(Br)s1` [C26, N-(benzo[d][1,3]dioxol-5-ylmethyl)-2-{[(5-bromothiophen-2-yl)methyl](methyl)amino}acetamide] the “DNA binding ability of HilDL45A, HilDY46A, HilDY212A” value [1] was “did not exert any effect”, the “HilDI100A binding to PhilA” value [2] was “hindered” and the “levels of cross-linked HilD dimer” value [3] was “did not affect the levels of cross-linking”. For the same compound, the “Log2 Fold change STM0972” value [4, 7] was -1.019 and -1.567 and -1.468, the “Log2 Fold change STM05625” value [4, 7] was -1.06 and -1.782 and -1.1981 and the “Log2 Fold change avrA” value [4, 7] was -1.134 and -2.023 and -1.399. For the same compound, the “Log2 Fold change hilA” value [4, 7] was -3.571 and -4.424 and -3.961, the “Log2 Fold change hilC” value [4, 7] was -2.8 and -3.816 and -2.688 and the “Log2 Fold change hilD” value [4, 7] was -1.794 and -2.09 and -1.995. For the same compound, the “Log2 Fold change iacP” value [4, 7] was -2.394 and -3.567 and -2.412, the “Log2 Fold change iagB” value [4, 7] was -3.642 and -4.006 and -3.534 and the “Log2 Fold change invA” value [4, 7] was -3.221 and -3.81 and -3.166. The “Log2 Fold change invB” value [4, 7] was -2.867 and -3.637 and -3.183, the “Log2 Fold change invC” value [4, 7] was -2.536 and -3.183 and -2.8784 and the “Log2 Fold change invE” value [4, 7] was -3.292 and -4.06 and -3.2144. The “Log2 Fold change invF” value [4, 7] was -3.621 and -4.389 and -3.592, the “Log2 Fold change invG” value [4, 7] was -3.834 and -4.335 and -3.589 and the “Log2 Fold change invH” value [4, 7] was -3.135 and -3.596 and -3.2198. For the same compound, the “Log2 Fold change invI” value [4, 7] was -3.283 and -3.556 and -3.358, the “Log2 Fold change orgA” value [4, 7] was -1.913 and -2.484 and -2.0655 and the “Log2 Fold change orgB” value [4, 7] was -1.03 and -1.516 and -1.313. The “Log2 Fold change orgC” value [4, 7] was -0.8446 and -1.317 and -1.218, the “Log2 Fold change pagC” value [4, 7] was -0.9557 and -1.642 and -1.303 and the “Log2 Fold change pipB” value [4, 7] was -1.346 and -1.626 and -1.791. The “Log2 Fold change prgH” value [4, 7] was -2.242 and -3.146 and -2.589, the “Log2 Fold change prgI” value [4, 7] was -2.528 and -3.17 and -2.85 and the “Log2 Fold change prgJ” value [4, 7] was -2.351 and -3.201 and -2.717. The “Log2 Fold change prgK” value [4, 7] was -2.159 and -2.912 and -2.508, the “Log2 Fold change rtsA” value [4, 7] was -3.522 and -4.691 and -3.546 and the “Log2 Fold change sicA” value [4, 7] was -2.525 and -3.5667 and -2.5609. The “Log2 Fold change sicP” value [4, 7] was -1.008 and -1.8772 and -1.275, the “Log2 Fold change sifB” value [4, 7] was -1.447 and -2.07 and -1.848 and the “Log2 Fold change sipA” value [4, 7] was -2.154 and -3.4073 and -2.1103. For the same compound, the “Log2 Fold change sipB” value [4, 7] was -2.364 and -3.5554 and -2.316, the “Log2 Fold change sipC” value [4, 7] was -2.344 and -3.615 and -2.313 and the “Log2 Fold change sipD” value [4, 7] was -2.421 and -3.506 and -2.2134. The “Log2 Fold change sopB” value [4, 7] was -1.308 and -2.976 and -1.42, the “Log2 Fold change sopD” value [4, 7] was -1.407 and -0.6715 and -1.948 and the “Log2 Fold change sopE2” value [4, 7] was -1.5 and -2.647 and -1.472. For the same compound, the “Log2 Fold change spaN” value [4, 7] was -2.873 and -3.527 and -3.123, the “Log2 Fold change spaO” value [4, 7] was -2.648 and -3.446 and -2.941 and the “Log2 Fold change spaP” value [4, 7] was -2.823 and -3.907 and -2.993. For the same compound, the “Log2 Fold change spaQ” value [4, 7] was -3 and -2.087 and -2.907, the “Log2 Fold change spaR” value [4, 7] was -1.963 and -4.022 and -1.926 and the “Log2 Fold change spaS” value [4, 7] was -2.051 and -2.854 and -2.155. The “Log2 Fold change sprB” value [4, 7] was -2.031 and -3.538 and -1.986, the “Log2 Fold change ssaG” value [4, 7] was -1.637 and -2.322 and -2.8413 and the “log2 fold change expression RtsA” value [4, 8] was 3.82. For the same compound, the “log2 fold change expression hilA” value [4, 8] was 3.94, the “log2 fold change expression hilC” value [4, 8] was 3.02 and the “log2 fold change expression hilD” value [4, 8] was 1.95. For the same compound, the “SipA, SctE and SctP secretion into the culture supernatant” value [5] was “reduced in a dose-dependent manner”, the “expression of SipA, SctE and SctP in whole cells” value [5] was “blocked the expression” and the “expression of SiiF” value ([5]; FLAG-tagged SiiF) was “dose-dependent reduction”. For the same compound, the “sensitivity of clinical isolates (SipA secretion)” value [6] was “all sensitive”.
